Test results published in US6734182B2, “Aryl sulfonamides and sulfamide derivatives and uses thereof” (Synaptic Pharmaceutical Corporation, priority 1995, dated 2004).

Tests used:
[1] = biological target: T1, human Y2 receptor (Homo sapiens, UniProt P49146); assay: Radioligand binding to cloned human Y2 receptor (125I-PYY); details: cloned human Y2, stably transfected cells, read-out: Binding Affinity (K1 (nM) vs. 125I-PYY) Human Receptor Y2
T1 construct: expressed in transfected cells
T1 sequence (P49146 1-381): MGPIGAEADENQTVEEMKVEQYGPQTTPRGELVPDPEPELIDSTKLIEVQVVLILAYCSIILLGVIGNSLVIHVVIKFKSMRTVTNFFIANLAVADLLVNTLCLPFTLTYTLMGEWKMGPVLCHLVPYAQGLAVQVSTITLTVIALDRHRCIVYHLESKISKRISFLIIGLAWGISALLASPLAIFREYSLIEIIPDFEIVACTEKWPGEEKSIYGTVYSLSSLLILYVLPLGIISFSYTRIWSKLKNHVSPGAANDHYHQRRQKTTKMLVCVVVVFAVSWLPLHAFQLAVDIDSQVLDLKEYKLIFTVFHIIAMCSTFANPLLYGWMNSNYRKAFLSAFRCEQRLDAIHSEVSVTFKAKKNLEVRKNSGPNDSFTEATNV
Procedure: (§1) Human Y1, human Y2, and rat Y5 receptors were co-transfected with a G-418 resistant gene into the human embryonic kidney 293 cell line by a calcium phosphate transfection method (Cullen, 1987). Stably transfected cells were selected with G-418. Human Y4 and human Y5 receptors were similarly transfected into mouse fibroblast LM(tk−) cells and NIH-3T3 cells.
(§2) Binding of the compounds of the present invention to the human Y1, Y2, Y4 and Y5 receptors was evaluated using stably transfected 293 or LM(tk−) cells as described above. Stably transfected cell lines which may be used for binding assays include, for example, for the human Y1 receptor, 293-hY1-5 (deposited Jun. 4, 1996, under ATCC Accession No. CRL-12121), for the human Y2 receptor, 293-hY2-10 (deposited Jan. 27, 1994, under ATCC Accession No. CRL-11537), for the human Y4 receptor, L-hY4-3 (deposited Jan. 11, 1995, under ATCC Accession No. CRL-11779), and for the human Y5 receptor, L-hY5-7 (deposited Nov. 15, 1995, under ATCC Accession No. CRL-11995).
(§3) Membranes were harvested from COS-7 cells 48 hours after transient transfection. Adherent cells were washed twice in ice-cold phosphate buffered saline (138 mM NaCl, 8.1 mM Na2HPO4, 2.5 mM KCl, […], 0.9 mM CaCl2, 0.5 mM MgCl2, pH 7.4) and lysed by sonication in ice-cold sonication buffer (20 mM Tris-HCl, 5 mM EDTA, pH 7.7). Large particles and debris were cleared by low speed centrifugation (200 x g, 5 min, 4° C.). Membranes were collected from the supernatant fraction by centrifugation (32,000 x g, 18 min, […] ), washed with ice-cold hypotonic buffer, and collected again by centrifugation (32,000 x g, 18 min, 4° C.). […] Protein concentration was measured by the Bradford method (Bradford, 1976) using Bio-Rad Reagent, with bovine serum albumin as a standard. Membranes were held on ice for up to one hour and used fresh, or flash-frozen and stored in liquid nitrogen.
(§4) Membranes were prepared similarly from 293, LM(tk−), and NIH-3T3 cells. To prepare membranes from baculovirus infected cells, 2×10^7 Sf21 cells were grown in 150 mm tissue culture dishes and infected with a high-titer stock of hY5BB3. Cells were incubated for 2-4 days at 27° C., no CO2 be fore harvesting and membrane preparation as described above.

[2] = biological target: T2, human 5HT1E receptor (Homo sapiens, UniProt P28566); assay: Binding to human 5HT1E receptor ([3H]serotonin); details: cloned human receptor; read-out: Receptor (pKi) 5HT1E (converted)
T2 construct: expressed in transfected cells
T2 sequence (P28566 whole entry): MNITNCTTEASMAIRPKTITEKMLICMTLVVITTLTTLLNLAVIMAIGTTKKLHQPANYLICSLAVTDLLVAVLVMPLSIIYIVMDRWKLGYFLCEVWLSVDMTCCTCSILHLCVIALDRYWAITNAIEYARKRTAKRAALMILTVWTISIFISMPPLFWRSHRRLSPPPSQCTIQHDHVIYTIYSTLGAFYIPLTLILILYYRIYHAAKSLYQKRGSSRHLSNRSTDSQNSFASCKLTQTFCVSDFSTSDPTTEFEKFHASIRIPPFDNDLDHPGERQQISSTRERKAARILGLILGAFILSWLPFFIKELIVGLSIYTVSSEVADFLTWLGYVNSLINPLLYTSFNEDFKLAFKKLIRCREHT
Procedure: (§5) 5HT1Dα, 5HT1Dβ, 5HT1E, 5HT1F Receptors: LM(tk−) clonal cell lines stably transfected with the genes encoding each of these 5HT receptor subtypes were prepared as described above. The cell line for the 5HT1Dα, receptor, designated as Ltk−8-30-84, was deposited on Apr. 17, 1990, and accorded ATCC Accession No. CRL 10421. The cell for the 5HT1Dβ receptor, designated as Ltk−11, was deposited on Apr. 17, 1990, and accorded ATCC Accession No. CRL 10422. The cell line for the 5HT1E receptor, designated 5 HT1E-7, was deposited on Nov. 6, 1991, and accorded ATCC Accession No. CRL 10913. The cell line for the 5HT1F receptor, designated L-5-HT1F, was deposited on Dec. 27, 1991, and accorded ATCC Accession No. ATCC 10957. Membrane preparations comprising these receptors were prepared as described below, and suspended in 50 mM Tris-HCl buffer (pH 7.4 at 37° C.) containing 10 mM MgCl2, 0.2 mM EDTA, 10 μM pargyline, and 0.1% ascorbate. The binding of compounds was determined in competition binding assays by incubation for 30 minutes at 37° C. in the presence of 5 nM [^3H) serotonin. Nonspecific binding was determined in the presence of 10 μM serotonin. The bound radioligand was separated by filtration through GF/B filters using a cell harvester.

[3] = biological target: T3, human Y4 receptor (Homo sapiens, UniProt P50391); assay: Radioligand binding to cloned human Y4 receptor (125I-PYY); details: cloned human Y4, stably transfected cells, read-out: Binding Affinity (K1 (nM) vs. 125I-PYY) Human Receptor Y4
T3 construct: expressed in transfected cells
T3 sequence (P50391 whole entry): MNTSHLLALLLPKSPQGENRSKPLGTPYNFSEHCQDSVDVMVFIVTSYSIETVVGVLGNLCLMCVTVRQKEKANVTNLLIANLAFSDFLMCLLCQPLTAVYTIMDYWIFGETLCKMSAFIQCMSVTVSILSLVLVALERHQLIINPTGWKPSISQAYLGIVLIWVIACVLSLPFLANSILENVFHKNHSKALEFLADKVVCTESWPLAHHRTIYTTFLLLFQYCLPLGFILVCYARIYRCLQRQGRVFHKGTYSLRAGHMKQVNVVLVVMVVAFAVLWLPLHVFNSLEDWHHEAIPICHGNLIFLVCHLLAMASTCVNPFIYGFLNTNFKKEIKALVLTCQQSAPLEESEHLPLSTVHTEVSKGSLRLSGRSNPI
Procedure: as §1, §2, §3, §4

[4] = biological target: T4, human 5HT1F receptor (Homo sapiens, UniProt P30939); assay: Binding to human 5HT1F receptor ([3H]serotonin); details: cloned human receptor; read-out: Receptor (pKi) 5HT1F (converted)
T4 construct: expressed in transfected cells
T4 sequence (P30939 1-366): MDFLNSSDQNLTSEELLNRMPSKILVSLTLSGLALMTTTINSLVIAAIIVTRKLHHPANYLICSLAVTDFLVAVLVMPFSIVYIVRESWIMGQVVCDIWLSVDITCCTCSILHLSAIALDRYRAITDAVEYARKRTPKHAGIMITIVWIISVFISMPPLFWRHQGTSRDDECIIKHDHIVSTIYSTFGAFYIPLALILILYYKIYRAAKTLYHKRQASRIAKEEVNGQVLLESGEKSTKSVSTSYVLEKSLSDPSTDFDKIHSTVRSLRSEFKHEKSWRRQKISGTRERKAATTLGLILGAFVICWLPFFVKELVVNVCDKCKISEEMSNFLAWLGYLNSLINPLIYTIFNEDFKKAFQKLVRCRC
Procedure: as §5

[5] = test system: food intake in food-deprived rats; assay: Food intake in food-deprived rats (24 h food deprivation); format: in vivo, rat; set-up: concentration or dose not given beside the values; details: rats after 24 h food deprivation; two hours after administration of test compound
[6] = test system: NPY-induced feeding behavior in satiated rats; assay: NPY-induced food intake in satiated rats; format: in vivo, rat; details: compound 10 mg/kg i.p., then 300 pmole NPY i.c.v., 4 hours after NPY, in g (unit assumed)
Procedure: For these determinations food intake maybe measured in normal satiated rats after intracerebroventricular application (i.c.v.) of NPY in the presence or absence of the test compound. Male Sprague Dawley rats ciba-Geigy AG, Sisseln, Switzerland weighing between 180 g and 220 g are used for all experiments. The rats are individually housed in stainless steel cages and maintained on an 11:13 h light-dark cycle (lights off at 18:00 h) at a controlled temperature of 21-23° C. at all times. Water and food (NAFAG lab chow pellets, NAFAG, Gossau, Switzerland) are available ad libidum.
Rats under pentobarbital anesthesia are stereotaxically implanted with a stainless steel guide cannula targeted at the right lateral ventricle. Stereotaxic coordinates, with the incisor bar set −2.0 mm below interaural line, are: −0.8 mm anterior and +1.3 mm lateral to bregma. The guide cannula is placed on the dura. […]
Food intake may be measured by placing preweighed pellets into the cages at the time of NPY injection. […] The food intake of animals treated with test compound may be calculated as a percentage of the food intake of control animals, i.e., animals treated with vehicle. Alternatively, food intake for a group of animals subjected to the same experimental condition may be expressed as the mean ±S.E.M. Statistical analysis is performed by analysis of variance using the Student-Newman-Keuls test. […]

[7] = biological target: T5, human Y1 receptor (Homo sapiens, UniProt P25929); assay: Radioligand binding to cloned human Y1 receptor (125I-PYY); details: cloned human Y1, stably transfected cells, read-out: Binding Affinity (K1 (nM) vs. 125I-PYY) Human Receptor Y1
T5 construct: expressed in transfected cells
T5 sequence (P25929 1-384): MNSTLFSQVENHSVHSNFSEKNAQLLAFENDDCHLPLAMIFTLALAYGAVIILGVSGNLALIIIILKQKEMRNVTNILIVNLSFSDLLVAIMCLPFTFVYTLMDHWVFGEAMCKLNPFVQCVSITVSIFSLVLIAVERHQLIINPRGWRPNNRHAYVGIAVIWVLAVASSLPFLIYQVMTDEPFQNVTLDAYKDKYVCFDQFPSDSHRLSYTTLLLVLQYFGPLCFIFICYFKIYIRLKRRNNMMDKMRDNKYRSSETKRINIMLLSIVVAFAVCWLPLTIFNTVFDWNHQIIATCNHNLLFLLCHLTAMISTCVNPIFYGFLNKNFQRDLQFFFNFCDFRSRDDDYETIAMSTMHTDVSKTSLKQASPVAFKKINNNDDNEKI
Procedure: (§6) Membranes were harvested from COS-7 cells 48 hours after transient transfection. […] Large particles and debris were cleared by low speed centrifugation (200 x g, 5 min, 4° C.). […] Membranes were held on ice for up to one hour and used fresh, or flash-frozen and stored in liquid nitrogen.
(§7) Incubations were terminated by filtration over Whatman GF/C filters (pre-coated with 1% polyethyleneimine and air-dried before use), followed by washing with 5 mL of ice-cold binding buffer.

[8] = biological target: T6, human Y5 receptor (Homo sapiens, UniProt Q15761); assay: Radioligand binding to cloned human Y5 receptor (125I-PYY); details: cloned human Y5, stably transfected cells, read-out: Binding Affinity (K1 (nM) vs. 125I-PYY) Human Receptor Y5
T6 construct: expressed in transfected cells
T6 sequence (Q15761 1-445): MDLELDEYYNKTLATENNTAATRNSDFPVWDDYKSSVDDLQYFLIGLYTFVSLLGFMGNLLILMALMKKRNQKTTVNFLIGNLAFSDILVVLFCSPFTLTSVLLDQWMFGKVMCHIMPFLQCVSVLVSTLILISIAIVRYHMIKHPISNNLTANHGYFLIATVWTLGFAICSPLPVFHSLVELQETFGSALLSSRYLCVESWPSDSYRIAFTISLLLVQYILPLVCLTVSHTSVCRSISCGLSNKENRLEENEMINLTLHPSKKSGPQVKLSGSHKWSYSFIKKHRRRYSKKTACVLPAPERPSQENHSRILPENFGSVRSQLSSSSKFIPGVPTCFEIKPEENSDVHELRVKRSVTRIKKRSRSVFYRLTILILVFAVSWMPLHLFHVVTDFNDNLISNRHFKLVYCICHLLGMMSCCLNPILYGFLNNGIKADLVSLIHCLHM
Procedure: as §6, §7

[9] = biological target: T7, cloned human Y5 receptor (Homo sapiens, UniProt Q15761); assay: Functional assay: block of NPY-induced inhibition of cAMP accumulation in forskolin-stimulated LM(tk-) cells (radioimmunoassay of cAMP); format: cell-based; details: antagonism of NPY-induced inhibition of cAMP accumulation, forskolin-stimulated LM(tk-) cells with human Y5; at least three experiments
T7 construct: expressed in transfected cells
T7 sequence (Q15761 1-445): T6 sequence (Q15761 1-445)
Procedure: LM(tk−) cells stably transfected with the human Y5 receptor were routinely converted from an adherent monolayer to a viable suspension. […] The cell suspension was maintained in a shaking incubator at 37° C., 5% CO2 for 24 hours.
Stably transfected cells were seeded into 96-well microtiter plates and cultured until confluent.
The ability of the compounds to antagonize the Y-type receptors is reported as the Kb. […] Results shown are representative of at least three indepenent experiments.

Molecule `O=S(=O)(NC[C@H]1CC[C@H](CNC(CO)Cc2ccc(Cl)cc2)CC1)c1cccc2ccccc12` (relative stereo) [Example 77, Naphthalene-1-sulfonic Acid trans-(4-{[2-(4-Chloro-phenyl)-1-hydroxymethyl-ethylamino]-methyl}-cyclohexylmethyl)-amide] has a Ki [1] of 851 nM, a Ki [2] of at least 5.01 µM and a Ki [3] of 13100 nM. For the same molecule, the Ki [4] was at least 5.01 µM and the “Two-hour food intake, percentage of intake compared to control rats, Mean (%)” value (from here on “Two-hour food intake, percentage of intake … (%)”) [5] was 32%.
`Cl.O=S(=O)(NCC1CCC(CNCC2CCc3ccccc3C2)CC1)c1ccc2ccccc2c1` (centres unmarked) [Example 31] was tested, and the “NPY-induced cumulative food intake (NPY + compound), mean ± S.E.M.” value [6] was 3.8 ± 0.4 and the “Two-hour food intake, percentage of intake … (%)” value [5] was 27%.
In the case of `Cl.O=S(=O)(NCC1CCC(CNCc2cccc3ccccc23)CC1)c1ccccc1C(F)(F)F` (centres unmarked) [Example 37], the Ki [1] is reported as 617 nM, the Ki [7] is reported as 14500 nM and the Ki [8] is reported as 26 nM. For the same molecule, the Kb [9] was 0.038 µM, the Ki [3] was 21500 nM and the “Two-hour food intake, percentage of intake … (%)” value [5] was 58%.
For `Cl.O=S(=O)(NCC1CCC(CNCc2ccc3ccccc3c2)CC1)c1ccccc1C(F)(F)F` (centres unmarked) [Example 38], the Ki [1] was 1610 nM, the Ki [7] was 13000 nM and the Ki [8] was 9.8 nM. The Kb [9] was 0.016 µM, the Ki [3] was 18500 nM and the “Two-hour food intake, percentage of intake … (%)” value [5] was 80%.
In the case of `Cl.Cl.O=[N+]([O-])c1ccccc1S(=O)(=O)NCC1CCC(CNCc2ccc3ccccc3n2)CC1` (centres unmarked) [Example 44], the Ki [1] is reported as 58200 nM, the Ki [7] is reported as 23700 nM and the Ki [3] is reported as 19300 nM. For the same molecule, the “Two-hour food intake, percentage of intake … (%)” value [5] was 73%.
For `Cl.Cl.O=[N+]([O-])c1ccccc1S(=O)(=O)NCC1CCC(CNCc2ccnc3ccccc23)CC1` (centres unmarked) [Example 45], the Ki [1] was 5280 nM, the Ki [7] was 48700 nM and the Ki [8] was 28 nM. For the same molecule, the Kb [9] was 0.049 µM, the Ki [3] was 63100 nM and the “Two-hour food intake, percentage of intake … (%)” value [5] was 84%.
